One may read the IC50 as the point on the concentration scale where inhibition reaches its midpoint.

The assay addresses X-box-binding protein 1 (Homo sapiens) (UniProt P17861). The experiment in a line: inhibitors of XBP1 reporter signal, dose response, counter-screen, cell-based (AID 504313).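 Also: CHO cells carrying an XBP1 reporter stimulated with tunicamycin; potency is for inhibition of the tunicamycin-induced reporter signal.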 The settings on record: XBP1 reporter cell assay, percent of control. (In general: A counterscreen serves to expose hits that act by an unwanted route or on another target.)

Activity calls are given as the source filed them. No rule for the calls is given here.

Turning to `Cc1ccc(OCC(=O)N2N=C(C(F)(F)F)CC2(O)C(C)(C)C)cc1C` (stereo not given), the IC50 entry is “inactive”. With `Cc1cccc(C(=O)c2cnc3ccccc3c2-c2ccccc2)c1`, the IC50 is > 10 µM (inactive). Turning to `C[C@H]1C[C@@H](C)C(=O)[C@@H]([C@H](O)CC2CC(=O)NC(=O)C2)C1`, the IC50 was 0.21 µM.

With `O=C1c2ccc3c4c(ccc(c24)C(=O)N1c1cccc(O)c1)C(=O)N(c1cccc(O)c1)C3=O`, the IC50 entry is “inactive”. To `O=C(CCl)N(c1ccc(Cl)cc1)c1c[nH]c2ccccc12` belongs “inactive”; to `COc1ccc(-c2cc(C3CCN(Cc4cccc(C(F)(F)F)c4)CC3)[nH]n2)cc1`, “inactive”; to `CC(C)=C1C2CCC1C(C(=O)Nc1sc(C)c(-c3ccc(C(C)C)cc3)c1C(N)=O)C2C(=O)O` (stereo not given), “inactive”. Turning to `CN(C)c1ccc(/C=C2\SC(=O)N(CCc3nnc(N)s3)C2=O)cc1`, the IC50 entry is “inactive”.

For the compound `COC(=O)C(O)(c1ccc(NC(=S)NC(=O)c2ccc(Cl)cc2Cl)c(C)c1)C(F)(F)F` (stereo not given), the IC50 was > 10 µM (inactive). On to `CCCCCCn1c(-c2ccco2)nc2oc3cc(OC)ccc3c(=O)c2c1=O`, for which the IC50 was > 10 µM (inactive). Regarding `Oc1ccc(/C=N/N2CCN(C3c4ccccc4-c4ccccc43)CC2)c(O)c1`, the IC50 is > 10 µM (inactive). To `NC(=O)CC(NC(=O)Cc1cccc2ccccc12)c1ccc(NCc2ccc(F)cc2)c([N+](=O)[O-])c1` (stereo not given) belongs > 10 µM (inactive). For the compound `CCc1ccc(NP(=O)(Oc2ccccc2F)Oc2ccccc2F)cc1`, the IC50 was > 10 µM (inactive). Take `Cc1ccc(-c2nn(-c3ccccc3)cc2/C=N/NC(=O)c2ccc(Br)o2)cc1`: the IC50 entry is “inactive”. Regarding `O=C(NNc1ccccc1[N+](=O)[O-])Nc1ccc(Cl)c(Cl)c1`, the IC50 is > 10 µM (inactive).

Turning to `COc1ccc(Cn2c(C)c(C)c(C#N)c2NC(=O)Nc2ccc(Cl)cc2)cc1`, the IC50 was > 10 µM (inactive). As for `CC1=C(CO)C(=O)OC([C@@H](C)C2CC[C@H]3C4C[C@H]5O[C@]56[C@@H](O)C=CC(=O)[C@]6(C)C4CC[C@]23C)C1` (stereo not given in full), the figure is > 10 µM (inactive); as for `Cc1nn(-c2ccccc2)c(Cl)c1CN(C(=O)CCl)c1ccc(Cl)cc1`, 3.3 µM; as for `COc1cc([C@@H]2c3cc4c(cc3[C@@H](O)[C@@H](CO)[C@@H]2CO)OCO4)cc(OC)c1O[Si](C)(C)C(C)(C)C`, “inactive”. For the compound `COc1ccc(C(=O)/C=C/C(=O)N(CC(=O)NCCC(C)C)Cc2cccs2)c(O)c1`, the IC50 result is “inactive”.

As to `CC(C)(C)c1ccc(C(=O)NC(=S)NNC(=O)c2cccs2)cc1`, the IC50 is > 10 µM (inactive).

As for `CCCCCCCCCCCCCCCCn1cc[n+](C)c1`, the IC50 result is “inactive”. With `COC(=O)C[C@]1(C(=O)OC)CN(C#N)N(c2ccc(Cl)cc2)C12c1ccccc1-c1ccccc12`, the IC50 is 4.38 µM.

Consider `Cc1ccc(N(c2ncnc(N)c2[N+](=O)[O-])C2CCCCC2)cc1`, for which the IC50 is > 10 µM (inactive).

Regarding `CCc1ccc(OCCNC(=O)c2ccccc2SCc2ccccc2)cc1`, the IC50 is > 10 µM (inactive). In the case of `Cc1ccccc1CS(=O)(=O)c1nnc([C@H](Cc2ccccc2)NC(=O)OC(C)(C)C)o1`, the IC50 entry is “inactive”. To `Cc1ccc(N=Cc2cc3c(cc2O)OC(N)=C(C#N)C3c2ccccc2)cc1` (stereo not given) belongs > 10 µM (inactive); to `C=CS(=O)(=O)c1ccc(Oc2ccc(S(=O)(=O)C=C)cc2)cc1`, 1 µM; to `O=[N+]([O-])c1cc(S(=O)(=O)C(F)(F)F)ccc1Sc1nc2ccccc2[nH]1`, “inactive”. As to `O=C(NCc1nc(-c2ccc(C(F)(F)F)cc2)no1)Nc1ccc(OC(F)(F)F)cc1`, the half-inhibitory concentration (IC50) was 4.26 µM. For `CCOC(=O)COc1ccccc1/C=C\[N+](=O)[O-]`, the IC50 result was “inactive”. Take `Cc1ccc(N=C2SC(C(=O)Nc3ccc(OC(F)(F)F)cc3)C(N)=C2C(=O)Nc2c(C)cc(C)cc2C)cc1` (stereo not given): the IC50 is > 10 µM (inactive). With `CC(=O)/C=C/n1c(=S)oc2ccccc21`, the IC50 entry is “inactive”. For `Oc1ccc(/C=N/Nc2nc(N3CCCCCC3)nc(N3CCCCCC3)n2)c(O)c1`, the IC50 was > 10 µM (inactive). `CCOc1cc(/C=C2/C(=O)ON=C2C)ccc1OCc1ccccc1F`: the IC50 was > 10 µM (inactive). Turning to `NC(=O)CC(NC(=O)Cc1cccc2ccccc12)c1ccc(NCCOc2ccccc2)c([N+](=O)[O-])c1` (stereo not given), the IC50 was > 10 µM (inactive). Take `CCOc1ccc(/C=N/NC(=O)c2cc(-c3ccco3)nc3ccccc23)cc1`: the IC50 result was “inactive”.

Regarding `CCOC(=O)C(NC(=O)Nc1cccc(C)n1)(OCC(F)(F)F)C(F)(F)F` (stereo not given), the IC50 entry is “inactive”. Consider `CCCCc1nc2ccccc2c(=O)n1NC(=O)c1c(O)c2ccccc2n(C)c1=O`, for which the IC50 was > 10 µM (inactive). With `CC(C)C[C@H](NC(=O)c1[nH]cnc1C(=O)N[C@@H](C)C(=O)OC(C)(C)C)C(=O)OC(C)(C)C`, the IC50 is 2.71 µM.

As for `O=C(CN1c2ccccc2Sc2ccccc21)NNC(=O)Nc1cccc(Cl)c1`, the IC50 is > 10 µM (inactive). `Cc1cccc(NS(=O)(=O)c2ccc(C3CCCCC3)cc2)c1`: the IC50 was 4.03 µM. Consider `Nc1nc(-c2ccccc2)c(N=Nc2ccccc2Cl)s1`, for which the IC50 entry is “inactive”.

Consider `CCCOC(=O)c1ccc(Oc2cn[nH]c2-c2ccc(OCC)cc2O)cc1`, for which the IC50 entry was “inactive”. For the compound `Cc1cccc(/C=C2/S/C(=N/N=C3\CC4CCC3(C)C4(C)C)NC2=O)c1` (stereo not given), the IC50 entry was “inactive”. As for `Nc1ccc2c(c1)C(=O)C(=O)c1ccccc1-2`, the entry is “inactive”; as for `COC(=O)c1ccc2c(=O)n(CCCCCC(=O)N3CCN(c4ccccc4)CC3)c(=O)[nH]c2c1`, > 10 µM (inactive); as for `O=C(/C=C\c1cn(-c2ccccc2)nc1-c1ccccc1)Nc1nccs1`, “inactive”. Regarding `O=C(CCl)Nc1cn(-c2ccccc2)nc1-c1ccccc1`, the IC50 result was “inactive”.

Consider `C=CCOC(=O)C1=C(C)NC(SCC(=O)Nc2nccs2)=C(C#N)C1c1ccc(Cl)cc1` (stereo not given), for which the IC50 was > 10 µM (inactive). Regarding `O=C(Nc1ccc([N+](=O)[O-])cc1)Nc1nc(-c2ccc(Cl)s2)cs1`, the IC50 is 2.53 µM. As to `C=CCn1c(CCc2cc(C(C)(C)C)c(O)c(C(C)(C)C)c2)n[nH]c1=S`, the IC50 result is “inactive”. Turning to `CC(C)(C)c1nnc(N/N=C/c2cc(Br)ccc2O)n(N)c1=O`, the half-inhibitory concentration (IC50) is 6.02 µM. To `O=C(c1ccco1)N1CCN(c2c(-c3ccccc3)c3cc(Cl)ccc3[nH]c2=O)CC1` belongs > 10 µM (inactive). For `CCCCCCOC(=O)c1ccccc1N`, the IC50 is > 10 µM (inactive). To `Cc1ccc(/C=C2\SC(=S)N(CCCC(=O)Nc3ccccn3)C2=O)cc1` belongs < 0.16 µM; to `CC(C)C[C@H](NC(=O)c1[nH]cnc1C(=O)Nc1ccccc1)C(=O)OC(C)(C)C`, “inactive”. With `CCCCCCN1C=CC(=C2C(=O)c3ccccc3C2=O)C=C1`, the IC50 result was “inactive”. Consider `CCN1CCN(Cc2ccc(NC(=O)c3ccc(C)c(NC(=O)c4c[nH]c5cc(C(F)(F)F)ccc5c4=O)c3)cc2C(F)(F)F)CC1`, for which the IC50 was < 0.16 µM.

Take `O=[N+]([O-])c1c(NCCCO)cc(Sc2ccc(Cl)cc2)c2nonc12`: the IC50 result is “inactive”. In the case of `CCC(CC)c1nnc(NC(=O)c2c(C)nn(Cc3ccccc3Cl)c2C)s1`, the IC50 was > 10 µM (inactive). To `O=C(COc1ccc(Cl)cc1Cl)NCCC1=CCCCC1` belongs 4.23 µM. Take `Cc1cc(C)c2nc(C(F)(F)F)c(C#N)c(N)c2c1`: the IC50 was > 10 µM (inactive). Turning to `Cc1ccc(C)c(OCc2ccc(C(=O)N3N=C(C(F)F)CC3(O)C(F)F)o2)c1` (stereo not given), the IC50 entry was “inactive”.

Take `Cc1ccc(-n2c(Cl)c(Cl)nc(Cl)c2=O)cc1`: the IC50 is 2.32 µM. On to `O=C(O)c1ccc(N/N=C/c2ccc3nccnc3c2)cc1`, for which the IC50 was 1.83 µM. Turning to `Oc1ccc(Oc2ccc3c(C(F)(F)F)cc(C(F)(F)F)nc3n2)cc1`, the IC50 was > 10 µM (inactive).

Consider `COc1ccc(OC)c2sc(NC(=O)c3ccc(Cl)s3)nc12`, for which the IC50 was > 10 µM (inactive). As for `CC1=C/C(=N\OS(=O)(=O)c2ccccc2)C=CC1=O`, the IC50 was 2.9 µM. To `COc1ccc(C(=O)NC(=O)Nc2cc(C)ccn2)cc1` belongs “inactive”; to `CCSCCc1nnc(NC(=O)Nc2cccc(C(F)(F)F)c2)s1`, 4.74 µM; to `CCOC(=O)C1=C(C)NC(C)=C(C(=O)OCC)C1/C=C/c1ccccc1`, “inactive”.

With `CCOC(=O)/C(=C\c1ccc(OC(F)F)cc1)C1=Nn2c(nnc2-c2ccc(Cl)cc2)SC1`, the half-inhibitory concentration (IC50) was 4.7 µM. As for `Cc1ccc(C(=O)N/C(=C\c2ccc(Br)cc2)c2nc(=S)[nH][nH]2)cc1`, the IC50 was > 10 µM (inactive). `O=C(Nc1ccccc1)C1=C(c2ccccc2)S(=O)(=O)CCS1(=O)=O`: the IC50 result is “inactive”. For the compound `Cc1ccc(NC(=O)c2ccc(Nc3c([N+](=O)[O-])cc([N+](=O)[O-])cc3[N+](=O)[O-])cc2)cc1`, the IC50 result was “inactive”.

For `COC(=O)CN1C(=S)N(Cc2ccccc2)C(=O)C1CC(=O)Nc1ccc(Br)cc1` (stereo not given), the concentration for half-maximal inhibition (IC50) is 5.87 µM.

As to `CC(C)C[C@H](NC(=O)c1nc[nH]c1C(=O)NCC(=O)OC(C)(C)C)C(=O)OCc1ccccc1`, the IC50 result is “inactive”. On to `Cc1ccccc1/C=N/Nc1ccnc2cc(Cl)ccc12`, for which the IC50 is > 10 µM (inactive). To `CCCCCCn1c(CN2CCCC(C)C2)nc2c1c(=O)n(C)c(=O)n2C` (stereo not given) belongs > 10 µM (inactive); to `CN1CCN(c2ccc(-c3ccc4ccccc4n3)cc2)CC1`, < 0.16 µM (inactive).

Turning to `COc1ccccc1-c1cc(C(F)(F)F)nc(S(=O)(=O)CCCC(=O)NC(C)C)n1`, the IC50 entry was “inactive”. For `O=C(NNc1ccccc1Br)C(O)(c1cccc(C(F)(F)F)c1)c1cccc(C(F)(F)F)c1`, the IC50 result is “inactive”. As for `CC1CCC(C(C)C)C(OCC(O)CN2CCN(Cc3ccccc3)CC2)C1` (stereo not given), the IC50 was > 10 µM (inactive). Take `COC(=O)[C@]12OC[C@]34C([C@@H](O)[C@@H]1O)[C@]1(C)CC(=O)C(O)=C(C)[C@@H]1C[C@H]3OC(=O)[C@H](O)[C@@H]24` (stereo not given in full): the IC50 result was “inactive”.

The values above are taken from PubChem BioAssay AID504313 (Emory University Molecular Libraries Screening Center, 2011).
